What was measured:
[1] = tested on: erythroid cells generated from human CD34+ hematopoietic stem cells; test: Three-stage erythroid culture; maturation-phase (third) medium supplemented; FACS-based cell counting
Protocol: The effect of hypotaurine alone or in combination with myo-inositol on erythroid progenitor cell cultures was examined. Human CD34^+ hematopoietic stem cells (HSCs) were cultured in a three-stage process to generate enucleated erythroid cells. In the first stage, the CD34^+ HSCs were expanded in a T-flask in a first culture medium containing IMDM supplemented recombinant human insulin, recombinant human transferrin, recombinant human SCF, recombinant IL-3, recombinant Flt-3 ligand, and recombinant human IL-3. Subsequently, cells were transduced with a lentiviral vector encoding phenylalanine ammonia lyase. After transduction, cells were cultured in a 50 L bioreactor culture vessel containing a second culture medium containing IMDM, supplemented with recombinant human erythropoietin, recombinant human SCF, recombinant human IL3, recombinant human insulin, dexamethasone, and recombinant human transferrin. For the third stage of the process (maturation phase), an aliquot of cells was seeded into 24 well plate containing a third culture medium containing IMDM supplemented with recombinant human EPO, recombinant human SCF, recombinant human insulin, recombinant transferrin, human AB serum, and human plasma.
[…] Of note, the first, second and third culture media included a basal media (i.e., IMDM) including 0.0072 g/L of myo-inositol. Periodic sampling and cell counting was performed during the third stage using a fluorescence-activated cell sorting-based cell counter.

[2] = tested on: erythroid progenitor cells; test: Total cell density over time in cultures of erythroid progenitor cells (FIG. 1); type: cell-based; settings: culture medium including the substance during maturation; compared to methods without it
[3] = tested on: erythroid progenitor cells; test: Enucleated erythroid cell density over time in cultures of erythroid progenitor cells (FIG. 2); type: cell-based; settings: culture medium including the substance during maturation; compared to methods without it
[4] = third culture media supplemented with taurine, compared to control culture conditions (data not shown)

Compound: NCCS(=O)O [hypotaurine]
- total cell density of erythroid cells ([1]; 1.0 g/L hypotaurine in third culture medium, 24 well plate, compared to control culture conditions (FIG. 1)): significantly increase
- enucleated erythroid cell density ([1]; 1.0 g/L hypotaurine in third culture medium, 24 well plate, compared to control culture conditions (FIG. 2)): significantly increase
- cell proliferation [2]: increased
- number of enucleated erythroid cells [3]: increased
- rate of enucleation [3]: increased

Compound: NCCS(=O)(=O)O [taurine]
- enucleated erythroid cell density [1, 4]: significant increase
- total cell density of erythroid cells [1, 4]: significant increase
- cell proliferation [2]: increased
- number of enucleated erythroid cells [3]: increased
- rate of enucleation [3]: increased
